What was measured:
[1] = system: human primary trabecular meshwork cells; assay: α-SMA expression in TGF-β2 treated TM cells; type: cell-based; details: TGFβ2 5 ng/mL 48 hr; remodilin 3 μM, PGE2 1 μM; vs DMSO
Method: FIG. 9 Anti-fibrogenic effects of remodilin 50 in human primary trabecular meshwork cells.
(§1) TM cells were cultured in 6-well plates and serum-deprived for one day before drug treatment. Cells were treated with prostaglandin E2 (PGE2, 1 μM), remodilin [3 μM] or vehicle control (dimethyl sulfoxide, DMSO) together with human recombinant TGF-β2 [5 ng/ml] for 48 hours. PGE2 was chosen as a positive control due to its known anti-fibrogenic effects. […] The effect of remodilin treatment alone on cellular contractile force in TM cells was examined. The effects of remodilin treatment using “force response ratio” which is a normalized average contractile force compared to baseline, was examined. Average contractile force was measured using Fourier-Transform Traction Microscopy. After 1 hr treatment, compared to DMSO, remodilins reduced average contractile force of TM cells in a dose dependent manner. […] Therefore, remodilins may change structural compositions and mechanical properties of TM and therefore, may help increase outflow facility in glaucomatous eyes with elevated TGF-β2 level.

[2] = system: human lung-derived fibroblasts; assay: TGFβ-induced myofibroblast transformation (ACTA2, FN1 protein expression); type: cell-based; details: 1 ng/mL TGFβ1; 0, 1, 3, or 10 μM remodilin for 2 d; dose-dependent
Method: FIG. 1 Remodilins inhibit myofibroblast transformation (MFT). Serum deprived human lung-derived fibroblasts were treated with 1 ng/mL TGFβ1 (or not, left lane) and 0, 1, 3, or 10 μM remodilin for 2 d. Four remodilins each inhibited smooth muscle α-actin (ACTA2) or fibronectin-1 (FN1) protein expression (markers of MFT).

[3] = system: Smad-dependent transcription; assay: TGFβ-stimulated Smad-dependent transcription (SBE-Luc reporter); type: cell-based; details: human lung fibroblasts; 10 μM
Method: (§2) FIG. 2 Signaling pathway targeted by remodilins. Schematic diagram (center) of signaling from TGFβ to (SRF); red proteins are some, but not all, potential targets. TGFβ stimulates Smad-dependent transcription in human lung fibroblasts that is unchanged by 10 μM remodilin 4 (left), but TGFβ-stimulated SRF-dependent transcription is inhibited by the remodilin (right). SBE—Smad binding element; Luc—luciferase; TK-RL—constitutively active thymidine kinase promoter-driven renilla luciferase (used to control for transfection efficiency).
(§3) In cultured human lung fibroblasts, remodilins act downstream of Smad signaling, which remains intact, though TGFβ-induced SRF activation is blocked (FIG. 2); SRF is necessary for expression of smooth muscle α-actin and other contractile proteins. Remodilins also suppress TGFβ-induced HIF1α expression in human lung fibroblasts and HIF1α-stimulated pathways in human airway myocytes.

[4] = system: SRF-dependent transcription; assay: TGFβ-stimulated SRF-dependent transcription (luciferase reporter); type: cell-based; details: human lung fibroblasts; 10 μM
Method: as §2, §3

[5] = system: MDA-MB-231 cells; assay: Alamar blue assay (growth inhibition, cytotoxicity); type: cell-based, human; details: concentrations to at least 10 uM
[6] = In vivo PK and oral bioavailability, single dose; details: mouse, plasma, wild-type mice, 10 mg/kg single dose
Method: (§4) The in vivo bioavailability, plasma half-life, Cmax, and area under the curve (AUC) were determined after administration of single 10 mg/kg doses of remodilins 39 and 83 to mice (Table 1). Selected tissue concentrations of remodilins 39 and 83 after single oral doses of 10 or 50 mg/kg (FIG. 6). The PK properties of these remodilins differ substantially.

[7] = system: MDA-MB-231 cells; assay: Spheroid invasion into collagen gels; type: cell-based, human; details: 10 µM remodilin; 48 hrs; collagen 2 mg/mL; DMEM 0.5% FBS; vs 0.1% DMSO
Method: FIG. 3 MDA-MB-231 cells were grown into spheroids, then allowed to migrate into collagen gels in DMEM containing 0.5% FBS and remodilin (10 µM remodilin 39 [top row] or remodilin 83 [bottom row]) or diluent (0.1% DMSO) for 48 hrs (representative 48 hr images shown).
(§5) Remodilins 39 and 83 each slowed the invasion of triple negative MDA-MB-231 human breast cancer cells from spheroids into a surrounding collagen gel (FIG. 3), and also slowed the serum-directed invasion MDA-MB-231-derived BM1 cells through Matrigel-coated transwells (FIG. 4). Remodilins 39 and 83 also slowed the migration of MDA-MB-231 cells in a scratch wound healing assay (FIG. 5).

[8] = Lipophilicity and dissolution in vehicles; type: physicochemical
Method: In the experiments corresponding to FIG. 7, remodilin 83 was dissolved in 20% Solutol in PBS.

[9] = system: HIF1α; assay: Hypoxia-induced HIF1α accumulation in HEK293T cells (Western blot); type: cell-based; details: 6 hrs steady hypoxia; 3 or 10 μM
Text: FIG. 14A-14B Remodilins' effects on hypoxia-induced accumulation of HIF1α. […] FIG. 14B HIF1α was absent in cells ex-posed to 6 hrs normoxia (N).
OSA is a chronic, morbid disease affecting about 10% of the adult population, in which frequent episodes of upper airway collapse obstruct inspiratory airflow and cause IH. These episodes of IH disrupt sleep but perhaps more importantly accelerate multiple cardiometabolic abnormalities, including systemic hypertension, cardiovascular disease, stroke, and abnormal glucose metabolism. Therefore, remodilins were examined for their ability on inhibit hypoxia-induced accumulation of HIF1α, a transcription factor that mediates many of the adverse responses to IH.

[10] = system: HIF1α; assay: Hypoxia-induced HIF1α accumulation in HEK293 cells; type: cell-based; details: 6 hrs steady hypoxia (1% oxygen); 3 μM or 10 µM
Text: FIG. 12A-12B Remodilins inhibit accumulation of hypoxia-inducible factor-1 alpha (HIF1α) protein. FIG. 12A Effect of remodilin 83 on TGFβ-induced phosphorylation of AKT and ERK1/2 and TGFβ-induced HIF1α accumulation in human fibroblasts. FIG. 12B Both remodilins 39 and 83 inhibited HIF1α accumulation in HEK293 cells exposed to 6 hrs of hypoxia (1% 02).
The influence of remodilin 83 on HIF-1α accumulation in TGFβ-treated fibroblasts was examined. […] Similarly, both remodilins 39 and 83 inhibited HIF1α accumulation in HEK293 cells exposed to 6 hrs of hypoxia (1% O2; FIG. 12B). […] N—normoxia; H—hypoxia.

[11] = Tissue and plasma concentrations after single oral doses; type: in vivo; details: mice; single oral doses of 10 or 50 mg/kg (FIG. 6)
Method: FIG. 6 Tissue and plasma remodilin concentrations after single oral doses (filled circles 50 mg/kg; open circles-10 mg/kg). […] The greater oral bioavailability, longer half-life, and inter-tissue variation of remodilin 83 concentration are readily evident. Mean+SEM shown; n=3/condition.
as §4
PK was re-evaluated after 14 days of intraperitoneal (IP) or oral BID dosing. […] Plasma levels after single or 15 consecutive once-daily IP 10 mg/kg doses of remodilin 39 were examined (FIG. 8). The plasma concentration of 10 μM remodilin 39 corresponds to 5314 ng/mL.

[12] = system: MDA-MB-231-derived BM1 cells; assay: 10% FBS-directed invasion through Matrigel-coated transwell membrane; type: cell-based, human; details: dose-dependent; n=3/condition
Text: FIG. 4 Remodilins 39 and 83 inhibited 10% FBS-directed invasion migration of MDA-MB-231-derived BM1 cells through a Matrigel-coated transwell mem-brane, in a dose-dependent fashion. Mean+SEM shown; n=3/condition. **P<0.01; ***P<0.001; ****P<0.0001.
as §5

[13] = system: MDA-MB-231 cells; assay: Scratch wound healing migration assay; type: cell-based, human; details: dose-dependent; 1, 3, 10 uM; n=8 wells/condition
Method: Mean+SD shown; n=8 wells/condition. P<0.0001 for 1, 3, & 10 uM remodilin 39 vs DMSO (control) by 2-way ANOVA/Dunnett's.
as §5

[14] = system: human primary Schlemm's canal endothelial cells; assay: Fibronectin expression in TGF-β2 treated SC cells; type: cell-based; details: TGFβ2 2.5 ng/mL 48 hr; remodilin 3 or 10 μM; vs DMSO
Method: (§6) FIGS. 11A-11C Anti-fibrogenic effects of remodilins 50, 73, and 82 in human primary Schlemm's canal endothelial cells.
Remodilins' effect on SC cells, another key cell type in conventional outflow pathway, was examined. As described above, TGF-β2 also promotes pro-fibrogenic activation in SC cells and such activation accompanies elevation of cell contraction. Protein expression in TGF-β2 treated SC cells was examined first. SC cells from two different donors were cultured in 6-well plates and serum-deprived for 1 day before drug treatment. Cells were treated with Remodilin [3 or 10 μM] or DMSO together with human recombinant TGF-2 [2.5 ng/ml] for 48 hours.

[15] = system: human primary Schlemm's canal endothelial cells; assay: Contractile force of SC cells (Fourier-Transform Traction Microscopy); type: cell-based; details: vs DMSO; for elevation of cellular contractile force in TGFβ2 treated SC cells: TGFβ2 2.5 ng/mL 48 hr, dose-dependent; for cellular contractile force of SC cells, remodilin alone: treatment alone, 1 hr, dose dependent
Method: as §6
Remodilins' effect on elevation of SC cell contraction by TGF-β2 treatment was then examined. Cellular contractile force was measured using Fourier-Transform Traction Microscopy. Compared to no treatment, TGF-β2 treatment elevated average cellular contractile force by almost seven-fold. […] Then, the effect of remodilin treatment alone on cellular contractile force in SC cells was investigated. After 1 hr treatment, compared to DMSO, remodilins reduced cellular contractile force in a dose dependent manner (FIG. 11C). […] Taken together, the anti-fibrogenic effects and relaxation effects of remodilins could be beneficial to reduce outflow resistance potentially through promoting pore formation in SC inner wall.

[16] = system: TM cells; assay: Contractile force of TM cells (Fourier-Transform Traction Microscopy); type: cell-based, human; details: treatment alone, 1 hr, vs DMSO; dose dependent
Method: as §1

For CCCCC[C@H](O)/C=C/[C@H]1[C@H](O)CC(=O)[C@@H]1C/C=C\CCCC(=O)O [PGE2, prostaglandin E2, reference compound], the “α-SMA expression induced by TGF-β2 in TM cells” value [1] was “inhibited α-SMA expression”.
With CCN(CC)S(=O)(=O)c1ccc(NC(=O)c2ccc(OC)c(I)c2)cc1 [Remodilin 4, N-(4-(N,N-diethylsulfamoyl)phenyl)-3-iodo-4-methoxybenzamide] the “TGFβ-stimulated transformation of human lung-derived fibroblasts to myofibroblast phenotype (ACTA2 or FN1 protein expression)” value (from here on “TGFβ-stimulated transformation”) [2] was “blunt TGFβ-stimulated transformation”, the “TGFβ-stimulated Smad-dependent transcription” value [3] was “unchanged” and the “TGFβ-stimulated SRF-dependent transcription” value [4] was “inhibited”.
With COc1ccc(C(=O)Nc2ccc(S(=O)(=O)N3CCCCC3C)cc2)cc1I (stereo not drawn) [Remodilin 39, 3-Iodo-4-methoxy-N-(4-((2-methylpiperidin-1-yl)sulfonyl)phenyl)benzamide] the “growth inhibition or cytotoxicity by Alamar blue assay” value [5] was “Neither remodilin is growth-inhibitory or cytotoxic”, the “TGFβ-stimulated transformation” value [2] was “blunt TGFβ-stimulated transformation” and the bioavailability ([6]; po) was 4%. For the same compound, the AUC [6] was 0.224 µg·h/mL, the Cmax [6] was 0.24 µM and the half-life [6] was 1.3 h. The “invasion of MDA-MB-231 cells from spheroids into collagen gels” value [7] was “inhibited invasion”, the “lipophilicity / lipid solubility” value [8] was “highly lipid soluble” and the “HIF1α accumulation in HEK293T cells exposed to hypoxia” value [9] was “inhibit the accumulation of HIF1α”. For the same compound, the “HIF1α accumulation in HEK293 cells exposed to hypoxia” value [10] was “blunted HIF1α accumulation substantially”, the tissue distribution [11] was “distributed much more uniformly across tissues” and the “10% FBS-directed invasion migration of BM1 cells through Matrigel-coated transwell membrane” value [12] was “inhibited”. For the same compound, the “migration of confluent MDA-MB-231 cells into circular scratch wound” value [13] was “inhibited migration”.
For O=C(Nc1ccc(S(=O)(=O)N2CCCC2)cc1)c1ccc(Br)c(I)c1 [Remodilin 50, 4-Bromo-3-iodo-N-(4-(pyrrolidin-1-ylsulfonyl)phenyl)benzamide], the “fibronectin expression in TGFβ2 treated SC cells” value (“fibronectin expression” for short) [14] was “inhibited fibronectin expression”, the “TGFβ-stimulated transformation” value [2] was “blunt TGFβ-stimulated transformation” and the “elevation of cellular contractile force in TGFβ2 treated SC cells” value (shortened to “elevation of cellular contractile force”) [15] was “inhibited the elevation of cellular contractile force”. The “cellular contractile force of SC cells, remodilin alone” value (“cellular contractile force of SC cells” for short) [15] was “induced relaxation in SC cells”, the “α-SMA expression induced by TGF-β2 in TM cells” value [1] was “inhibited alpha smooth muscle actin expression” and the “average contractile force of TM cells (force response ratio)” value [16] was “induced relaxation in TM cells”.
With CC1CCCCN1S(=O)(=O)c1ccc(NC(=O)c2ccc(Br)c(I)c2)cc1 (stereo not drawn) [Remodilin 73, 4-Bromo-3-iodo-N-(4-((2-methylpiperidin-1-yl)sulfonyl)phenyl)benzamide] the “fibronectin expression” value [14] was “inhibited fibronectin expression”, the “elevation of cellular contractile force” value [15] was “inhibited the elevation of cellular contractile force” and the “cellular contractile force of SC cells” value [15] was “induced relaxation in SC cells”.
In the case of CCC1CCCCN1S(=O)(=O)c1ccc(NC(=O)c2ccc(OC)c(I)c2)cc1 (stereo not drawn) [Remodilin 82, N-(4-((2-ethylpiperidin-1-yl)sulfonyl)phenyl)-3-iodo-4-methoxybenzamide], the “fibronectin expression” value [14] is reported as “inhibited fibronectin expression”, the “elevation of cellular contractile force” value [15] is reported as “inhibited the elevation of cellular contractile force” and the “cellular contractile force of SC cells” value [15] is reported as “induced relaxation in SC cells”. The “average contractile force of TM cells (force response ratio)” value [16] was “induced relaxation in TM cells”.

— patent US20240415851A1, “REMODILINS TO PREVENT OR TREAT CANCER METASTASIS, GLAUCOMA, AND HYPOXIA” (The University of Chicago, priority 2019, published 2024)
